Test results as given in patent publication US20080255128A1, “PHTHALAZINONE DERIVATIVES” (priority 2007, published 2008).
Entries after “also recorded” stand apart in the source; their conditions may differ.

Assay: Stereochemical stability of separated isomers on standing in solution
Assay type: physicochemical
Conditions: after separation by chiral HPLC
Procedure: has a chiral centre where indicated. This racemic mixture was separated using chiral preparative HPLC.
This separation was carried out on a Rainin prep machine (200 ml heads) using a Merck 100 mm 20 μm Chiralpak AD column. The Eluent was a mixture of i-hexane, ethanol and methanol (70:15:15), which was flowed at a rate of 190 ml/min. The analaysis was carried out with a wavelength of 215 nm. Complete separation of the two isomers was achieved using a sample concentration of 12.5 mg/ml, an injection volumn of 40 ml and a run time of 3 hours.

CC1C(=O)N(c2cc(Cc3n[nH]c(=O)c4ccccc34)ccc2F)C(=O)N1CCN1CCCC1 (racemic) [Compound 9, 3-(2-fluoro-5-((4-oxo-3,4-dihydrophthalazin-1-yl)methyl)phenyl)-5-methyl-1-(2-(pyrrolidin-1-yl)ethyl)imidazolidine-2,4-dione]
stereochemical stability in solution: epimerise on standing in solution; also recorded: racemises
